According to patent US20140079836A1, “METHODS AND COMPOSITIONS FOR ALTERING HEALTH, WELLBEING, AND LIFESPAN” (LifeSpan Extension, LLC, priority 2008, published 2014):
Several values for one entry are separate records, joined by “and”; a condition that tells them apart may be missing. Equal values may be shown once.

Tested on: entire human genome (gene expression profile)
Assay: Agilent whole human genome array, skin fibroblasts AG07999, antioxidant with or without UV
Assay type: cell-based
Method: Cell cultures: A human skin fibroblast cell culture was obtained through the Coriell Cell Repository from the National Institute on Aging Cell Repository. […] Culture media: Cells were grown in Minimal Essential Medium supplemented with 10% fetal bovine serum, 2 mM L-glutamine, 2 mM Glutamax I. […] All cultures were incubated at 37° C. with 5% CO2 in a humidified chamber. […] On Day 5 after 24 hours of exposure to test conditions, the cells were isolated and the RNA isolated using the RT^2q PCR-grade RNA isolation kit (Superarray Bioscience Corporation). […] Analysis of Agilent Whole Human Genome Arrays: RNA taken from both samples was sent to Cogenics, Inc. Morrisville, N.C. Cogenics, Inc. is a leading, state-of-the-art, microarray service provider that facilitates and accelerates transcriptome profiling and gene discovery processes for industrial and academic researchers. Cogenics' procedure for processing samples is as follows: RNA samples are received and analyzed by Cogenics, Inc. using rigorous standardized procedures that are designed to ensure quality and chain of custody. Each sample undergoes a thorough quality analysis using an Agilent Bioanalyzer microfluidics device, and is precisely quantified using a Nanodrop-1000 spectro-photometer. When the Agilent Oligonucleotide Microarray Platform is utilized, samples are fluorescently labeled using the Agilent Low-Input Linear Amplification Kit. Upon completion of this process, the labeled cRNA products are assessed using the same processes described above. These labeled samples are then fragmented and hybridized to oligonucleotide microarrays. The microarrays are washed and then scanned using an Agilent DNA Microarray Scanner with Sure Scan technology. Data is extracted from the images produced by the scanner using Agilent's Feature Extraction software. At this point, the scanned image is visually inspected for defects, and the extracted data is statistically analyzed to ensure quality of the assay. Extracted data and images can be loaded into Rosetta Resolver Gene Expression Data Analysis System for in-depth analysis, both from a quality standpoint, as well as to develop biological understanding. […] A table was generated and provided as a tab-delimited text file. This file will contain the log ratio, fold-change, log ratio p-value, etc. for every transcript measured by the microarray. Using Rosetta Resolver, a single ratio comparison was compiled based on the results of the two fluorophore reversal hybridization performed in the context of this project. The ratios were calculated such that the Tx sample was in the numerator and the UnTx sample was in the denominator. A table was generated, saved as tab-delimited text files, and is provided on the DVD that accompanied this report in the “Objective—1” subdirectory or the “Data_Analysis” directory. These files contain the log ratio, fold-change, log ratio p-value, etc. for every transcript present on the microarray. […] A table for will be generated and provided as a tab-delimited text file. The file will contain the log ratio, fold-change, log ratio p-value, etc. for only the differentially expressed transcripts within the context of the comparison. […] These criteria were applied to the comparison made in Objective 1. A table was generated, saved as tab-delimited text files, and is provided on the DVD that accompanied this report in the “Objective—1” subdirectory or the “Data_Analysis” directory. […] Cell cultures: A human skin fibroblast cell culture (or cultures) will be obtained through the Coriell Cell Repository from the National Institute on Aging Cell Repository. […] Culture media: Cells will be grown in Minimal Essential Medium supplemented with 10% fetal bovine serum, 2 mM L-glutamine, 2 mM Glutamax I.

COC1=C(OC)C(=O)C(CCCCCCCCCCO)=C(C)C1=O [Idebenone, 6-(10-hydroxydecyl)-2,3-dimethoxy-5-methyl-1,4-benzoquin-one]
1.1: ATF2 Expression (Alone) | BRCA2 Expression (Alone) | CETN2 Expression (Alone) | CHEK2 Expression (Alone) | DDIT3 Expression (Alone) | DMC1 Expression (Alone) | DPYS Expression (Alone) | ENTPD4 Expression (Alone) | EXO1 Expression (Alone) | FANCG Expression (Alone) | GTF2H1 Expression (Alone) | HSP90AB1 Expression (Alone) | HTRA1 Expression (Alone) | IGHMBP2 Expression (Alone) | IHPK3 Expression (Alone) | IL10 Expression (Alone) | MMP11 Expression (Alone) | MSH3 Expression (Alone) | MTAP Expression (Alone) | N4BP2 Expression (Alone) | NRG1 Expression (Alone) | NTHL1 Expression (Alone) | PPIE Expression (Alone) | PSMA2 Expression (Alone) | PSMA3 Expression (Alone) | PSMD11 Expression (Alone)
−1.1: APEX2 Expression (Alone) | ATXN3 Expression (Alone) | CCNH Expression (Alone) | CRY2 Expression (Alone) | E2F2 Expression (Alone) | ERCC4 Expression (Alone) | ERCC8 Expression (Alone) | FANCF Expression (Alone) | GADD45A Expression (Alone) | GAPDH Expression (Alone) | GTSE1 Expression (Alone) | HK1 Expression (Alone) | LTA Expression (Alone) | MMP2 Expression (Alone) | MMP14 Expression (Alone) | NF1 Expression (Alone) | PITRM1 Expression (Alone) | PKM2 Expression (Alone) | PLAT Expression (Alone) | PLAUR Expression (Alone) | RRAS Expression (Alone) | S100A11 Expression (Alone)
−1.4: GTF2H4 Expression (Alone) | MAPKAPK2 Expression (Alone) | MMP1 Expression (Alone) | SERPINE1 Expression (Alone)
2.7: S100A7 Expression (Alone)
−1.7: S100A10 Expression (Alone)
−1.2: BPNT1 Expression (Alone) | CIDEB Expression (Alone) | GTF2H2 Expression (Alone) | INPPL1 Expression (Alone) | KRAS Expression (Alone) | NBN Expression (Alone) | NP Expression (Alone) | RORA Expression (Alone) | SIRT1 Expression (Alone) | SPARC Expression (Alone)
1.2 and 1.1: HPRT1 Expression (Alone)
−1.5: CDA Expression (Alone) | CHEK1 Expression (Alone) | E2F1 Expression (Alone) | E2F3 Expression (Alone) | NFKB1 expression (Alone) | PRDX6 Expression (Alone) | RB1 Expression (Alone)
1.2 and 1.0: SHC1 Expression (Alone)
n.s.: fold change of gene expression (sequence name in c0), Idebenone + UVB
−1.0: ACE Expression (Alone) | ANKRD17 Expression (Alone) | B2M Expression (Alone) | BRCA1 Expression (Alone) | CASP9 Expression (Alone) | CREBBP Expression (Alone) | ERCC3 Expression (Alone) | FANCC Expression (Alone) | FEN1 Expression (Alone) | IL1A Expression (Alone) | IL6 Expression (Alone) | MAPK9 Expression (Alone) | MAPK12 Expression (Alone) | MAX Expression (Alone) | MMP15 Expression (Alone) | MSRA Expression (Alone) | MUTYH Expression (Alone) | MYCBP Expression (Alone) | NEIL3 Expression (Alone) | NUDT2 Expression (Alone) | PAK1 Expression (Alone) | PAPSS1 Expression (Alone) | PAPSS2 Expression (Alone) | PCNA Expression (Alone) | PPARG Expression (Alone) | PSMD1 Expression (Alone) | RAF1 Expression (Alone) | RET Expression (Alone) | RPL13A Expression (Alone) | RRM1 Expression (Alone) | SLK Expression (Alone) | SOD1 Expression (Alone) | SRI Expression (Alone) | STAT5A Expression (Alone)
2.4: CSF2 Expression (Alone)
1.3 and 1.2: PARP1 Expression (Alone)
1.2: APEX1 Expression (Alone) | ATM Expression (Alone) | ATR Expression (Alone) | CDKN1A Expression (Alone) | ERCC1 Expression (Alone) | FPGS Expression (Alone) | MRE11A Expression (Alone) | NADSYN1 expression (Alone) | NEIL2 Expression (Alone) | OAS2 Expression (Alone) | PTGS1 Expression (Alone) | RPS9 Expression (Alone) | SMAD1 Expression (Alone)
1.7: MMP12 Expression (Alone)
1.9: DDB1 Expression (Alone)
1.1 and 1.0: ACTB Expression (Alone) | SOD2 Expression (Alone)
−1.3: GML Expression (Alone) | MAPK8 Expression (Alone) | MGMT Expression (Alone) | MT2A Expression (Alone) | OGG1 Expression (Alone)
−2.7: SPP1 Expression (Alone)
1.5: DUT Expression (Alone) | NEIL1 Expression (Alone)
−1.6: IFI44 expression (Alone) | MMP7 Expression (Alone) | NR1D1 Expression (Alone) | PLAU Expression (Alone)
1.3: BAX Expression (Alone) | CIDEA Expression (Alone) | NUDT1 Expression (Alone) | OAS1 Expression (Alone) | PARP2 Expression (Alone) | PLK1 Expression (Alone)
1.6: MVK Expression (Alone)
1.0: ABL1 Expression (Alone) | AK3 Expression (Alone) | ALDOA Expression (Alone) | APOE Expression (Alone) | ATIC Expression (Alone) | ATRX Expression (Alone) | BCL2 Expression (Alone) | BLM Expression (Alone) | BRIP1 Expression (Alone) | BTG2 Expression (Alone) | CASP2 Expression (Alone) | CDK7 Expression (Alone) | CDKN2A Expression (Alone) | CHUK Expression (Alone) | CIB1 Expression (Alone) | CLK1 Expression (Alone) | CRY1 Expression (Alone) | CTPS Expression (Alone) | DCLRE1C Expression (Alone) | DDB2 Expression (Alone) | DDC Expression (Alone) | DHFR Expression (Alone) | DKC1 Expression (Alone) | ERCC2 Expression (Alone) | ERCC5 Expression (Alone) | ERH Expression (Alone) | FANCA Expression (Alone) | GADD45G Expression (Alone) | GDA Expression (Alone) | GH1 Expression (Alone) | GMPR Expression (Alone) | GTF2H3 Expression (Alone) | HLA-DRA Expression (Alone) | HSPA1L Expression (Alone) | HUS1 Expression (Alone) | IGF1 Expression (Alone) | IGF2 Expression (Alone) | JUN Expression (Alone) | LIG1 Expression (Alone) | LIG3 Expression (Alone) | LIG4 Expression (Alone) | MAP2K6 Expression (Alone) | MAPK14 Expression (Alone) | MBD4 Expression (Alone) | MDH1 Expression (Alone) | MLH1 Expression (Alone) | MLH3 Expression (Alone) | MMP10 Expression (Alone) | MMP13 Expression (Alone) | MNAT1 Expression (Alone) | MPG Expression (Alone) | MSH2 Expression (Alone) | MSH4 Expression (Alone) | MSH6 Expression (Alone) | NCK1 Expression (Alone) | NFKBIA Expression (Alone) | NGFR Expression (Alone) | NOS2A Expression (Alone) | OAS3 Expression (Alone) | PDZK1IP1 Expression (Alone) | POLA2 Expression (Alone) | PSMC6 Expression (Alone) | PSMD12 Expression (Alone) | RPL3 Expression (Alone) | RPS10 Expression (Alone) | S100A8 Expression (Alone) | SPRR1B Expression (Alone)
−2.0: SDS Expression (Alone)
2.3: MMP3 Expression (Alone)
−2.9: SERPINB2 Expression (Alone)
1.4: BARD1 Expression (Alone) | CYP19A1 Expression (Alone) | ERCC6 Expression (Alone) | HSPA1A Expression (Alone) | MCM2 Expression (Alone) | MKI67 Expression (Alone) | MYBL2 Expression (Alone) | SNCG Expression (Alone)
